Broadly, the solubility is the dissolved amount per volume that the medium holds. Broadly, the AUC(0-t) is the area under the concentration-time curve up to a stated or last time point. The term Cmax denotes the maximum level reached in the sampled fluid or tissue. Broadly, the MRT last is a mean duration of stay, worked out from the concentration-time curve. One may read the clearance as the volume of plasma or blood freed of the substance per unit of time. Low values mean a low capacity for elimination, high ones a high capacity for elimination. What is called half-life is the time needed for the level to fall by half in the phase considered. High values mean slow loss, low ones fast loss.

Converted amounts (≈) assume the structure as drawn.

A short description of one data set: Solubility in water. It counts as physicochemical. To be noted: 20 °C. As for the experimental part:
0.1 g of product B was dissolved in 20 mL of dichloromethane, added with 10 ml of TFA and 1 mL of triisopropylsilane, and reacted at 25° C. for 2 h. A reaction solution was diluted to 50 mL with dichloromethane, washed three times with saturated NaHCO3, and dried with Na2SO4, and a solvent was evaporated by rotation to obtain crude products. The crude product was purified by silica gel column (a mobile phase was dichloromethane: methanol/65:25) to obtain product of dihydroartemisinin dithiodiglycolic acid dimer carboxyl betaine. […] MS: [M+H]^+ 1039.27.

Data set [1] concerns human erythrocyte infected by plasmodium strain (3D7). In words: Plasmodium killing test, SYBR Green I fluorescence method. Type of data set: cell-based. To be noted: 3D7, Erythrocyte, 48 h, read-out: median inhibitory concentration IC50 for killing plasmodium.
Method: Method: a plasmodium killing effect of a sample measured by a SYBR Green I fluorescence method
Material: human erythrocyte infected by plasmodium strain (3D7) (0.5% parasitemia), RPMI 1640 complete medium, and carbon dioxide incubator (5% CO2, 5% O2, equilibrium N2, and 37° C.)
The medium was blank. The erythrocytes were incubated in a carbon dioxide incubator for 48 h (37° C.).
For data set [2], the system named is MCF-7: human breast cancer cells. Nature of the data set: Human cancer cell killing test by MTT method, MCF-7. To be noted: MCF7, 96 h, read-out: IC50 MCF-7. Type of data set: cell-based. As for the experimental part:
(§1) Well-growing tumor cells were collected, a RPM11640 medium containing 10% fetal bovine serum was used to prepare […] cell suspension, the tumor cells were inoculated in a 96-well culture plate, and 100 μL of the cell suspension (containing 1000 tumor cells) was added into each well, cultured in 5% CO2 incubator at 37° C. for 24 h, and then added with drugs (see Table 2). Blank control and solvent control were set in the experiment, and tested samples were set with four concentrations, with three parallel wells for each concentration, and cultured in 5% CO2 incubator at 37° C. for 4 days. A culture solution was discarded, and 100 μL of MTT solution (0.4 mg/mL, RPM11640 preparation) was added into each well and incubated at 37° C. for 4 h. A supernatant was discarded, 150 μL of […] was added into each well to dissolve particles, and after slight shaking, an OD value was measured at a detection wavelength of 540 nm and a reference wavelength of 450 nm with a 550 microplate reader.
(§2) Result calculation: a dose-response curve can be obtained by plotting different concentrations of drugs and inhibition rates to cells, from which the median inhibitory concentration (IC50) can be obtained, and results are shown in Table 2. […] This is probably because that the artesunate is released slowly. […]

For data set [3], the system named is Hep G2: human liver cancer cells. In words: Human cancer cell killing test by MTT method, Hep G2. To be noted: HepG2, 96 h, read-out: IC50 Hep G2. Type of data set: cell-based. The protocol: as §1, §2
(Tetrazolium dyes change colour on reduction, which living cells bring about.)

The subject of data set [4] is A549: human lung adenocarcinoma cells. In words: Human cancer cell killing test by MTT method, A549. It counts as cell-based. To be noted: A549, 96 h, read-out: IC50 A549. As for the experimental part: as §1, §2
A further data set relates to HeLa:
Nature of the data set: Human cancer cell killing test by MTT method, HeLa. Type of data set: cell-based. To be noted: 96 h, read-out: IC50 HeLa. As for the experimental part:
as §1, §2

For data set [5], the system named is HL-60: human promyelocytic leukemia cells. In words: Human cancer cell killing test by MTT method, HL-60. Type of data set: cell-based. To be noted: HL-60, 96 h, read-out: IC50 HL-60. As for the experimental part: as §1, §2
Another data set in a line: in vivo. The settings on record: female, BALB/c, mouse, iv, 10 mg/kg.
The nature of data set [6]: In-vivo toxicity test of a mouse, oral administration. The settings on record: ICR mouse, male. From the text:
Animal: ICR mouse, male, 18 g to 22 g, purchased from Vital River Laboratory Animal Technology Co., Ltd.

Method for in vivo: BALB/c mice (female, five weeks, 20 g to 22 g) were divided into four groups (three mice in each group). […] A PBS solution of drugs was injected through tail vein.
Blood samples were respectively taken at predetermined times (0.25 h, 0.5 h, 1 h, 3 h, 6 h, 12 h, 24 h and 48 h) and centrifuged at 3,000 rpm for 10 min to obtain plasma.

Take `C[C@H]1[C@H](OC(=O)CCC(=O)O)O[C@@H]2O[C@@]3(C)CC[C@H]4[C@H](C)CC[C@@H]1[C@@]24OO3` [Artesunate]: the solubility in the data set “Solubility in water” worked out at 360 µg/mL (≈ 936 µM). Further, the IC50 in [1] was determined as 0.0103 µM; in data set [2] it was 150 µg/mL (≈ 390 µM); in data set [3], 100 µg/mL (≈ 260 µM); in data set [4] it was 110 µg/mL (≈ 286 µM); in the data set with HeLa: it was 130 µg/mL (≈ 338 µM); in [5] it was 130 µg/mL (≈ 338 µM). In the data set “in vivo”, the AUC(0-t) stood at 80700 ng·h/mL. Also, the concentration in “in vivo” peaked (Cmax) at 23400 ng/mL. For the same compound, in the data set “in vivo”, the MRT last amounted to 2.71 h. The compound further showed a clearance in the data set “in vivo” of 3.73 mL/min/kg. The compound further had a half-life in “in vivo” of 1.52 h.

`C[C@H]1[C@@H](O)O[C@@H]2O[C@@]3(C)CC[C@H]4[C@H](C)CC[C@@H]1[C@@]24OO3` [Dihydroartemisinin]: in data set [6], the “Oral median lethal dose” value worked out at 810 mg/kg weight.

(Values after patent publication US11136339B2, “Dihydroartemisinin diploid derivative, pharmaceutical composition thereof, and application” (priority 2017, dated 2021).)
